Measurements from US8962613B2, “P2X4 receptor antagonist” (Nippon Chemiphar Co., Ltd., priority 2010, dated 2015).
Structures can show the parent of a compound that is named as a salt. Where two headings read alike, the source gives them in different places.

Target: T1, human P2X4 receptors (Homo sapiens, UniProt Q99571)
T1 sequence (Q99571 1-388): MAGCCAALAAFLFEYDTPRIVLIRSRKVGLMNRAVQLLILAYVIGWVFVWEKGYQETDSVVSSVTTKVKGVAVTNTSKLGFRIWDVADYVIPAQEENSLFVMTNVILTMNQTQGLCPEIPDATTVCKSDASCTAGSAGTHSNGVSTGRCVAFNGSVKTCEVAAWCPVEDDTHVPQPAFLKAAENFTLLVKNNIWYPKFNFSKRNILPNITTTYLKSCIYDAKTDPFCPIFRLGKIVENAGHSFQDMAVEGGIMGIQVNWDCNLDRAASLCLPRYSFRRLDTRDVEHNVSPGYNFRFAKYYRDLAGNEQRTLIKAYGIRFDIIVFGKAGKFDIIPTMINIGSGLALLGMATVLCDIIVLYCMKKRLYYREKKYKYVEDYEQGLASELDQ
Test: P2X4 receptor antagonism, intracellular calcium influx assay (Fura-2 AM, ATP-induced)
Type: cell-based
Conditions: for IC50: 1321N1 cells stably expressing human P2X4 receptors, compound added 15 min before ATP, read-out: Inhibition activities (IC50 μM)
Protocol: 1321N1 cells stably expressing human P2X4 receptors were adopted for calcium influx assay. P2X4/1321N1 cells were plated in 96-well assay plate and cultured for 24 hours in an atmosphere of 5% CO2 at 37° C. Fura-2 AM calcium indicator dissolved in an extracellular solution for calcium imaging was loaded onto cells for 45 minutes at room temperature. The fluorescence was detected by FLUOstar OPTIMA micro plate reader (BMG labtech). The cells were alternatively illuminated with two excitations wavelengths (340 nm and 380 nm) via xenon lamp and the emitted fluorescence was measured at 510 nm. The fluorescence changes after the treatment of 1 μM ATP were monitored and determined the fluorescence ratio (F340/F380) as the index of intracellular calcium change. Tested compounds were treated to cells 15 min before the addition of ATP and the inhibition activities of compounds were calculated by comparing the Ca^2+ response with control in the absence of tested compound.
P2X4 receptor antagonism of the compound of the present invention was measured as described below.
1321N1 cells stably expressing human P2X4 receptors were plated in 96-well assay plate and cultured for 24 hours at 37° C. in an atmosphere of 5% CO2 for intracellular calcium assay. Fura-2 AM calcium fluorescent indicator was used for the intracellular calcium assay. Fura-2 AM was dissolved in an assay buffer, and the solution was loaded onto cells. The obtained plate was used for fluorescent assay.
Test compounds were treated to cells for 15 minutes before the addition of ATP, and the response to intracellular calcium influx induced by addition of ATP was monitored by a micro plate reader. The fluorescence ratio of excitations wavelengths of 340 nm and 380 nm was used as the index of intracellular calcium change. The inhibition activities of the test compounds were calculated by comparison with the absence of the test compound (control).

[1] = Table 19, fluorescence ratio F340/F380 vs control
[2] = Table 20, same manner as in Example 19

Row | Structure (SMILES) | IC50 [2] [µM] | also measured
1 | O=C1CC(=O)N(c2cccc(-c3nnn[nH]3)c2)c2ccc3c(c2N1)CCCC3.[Na] [Example 2, 5-[3-(1H-Tetrazol-5-yl)phenyl]-8,9,10,11-tetrahydronaphtho[2,1-b][1,4]diazepine-2,4(3H,5H)-dione sodium salt] | – | P2X4 receptor antagonism (in words) (summary statement on Tables 19 and 20): excellent P2X4 receptor antagonism
2 | O=C1CC(=O)N(c2cccc(O)c2)c2ccc3c(c2N1)CCCC3 [Example 3, 5-(3-Hydroxyphenyl)-8,9,10,11-tetrahydronaphtho[2,1-b][1,4]diazepine-2,4(3H,5H)-dione] | – | IC50 [1]: 3.9 µM
3 | O=C1CC(=O)N(c2cccc(-c3nnn[nH]3)c2)c2ccc3c(c2N1)CCC3 [Example 5, 5-[3-(1H-Tetrazol-5-yl)phenyl]-5,8,9,10-tetrahydroindeno[5,4-b][1,4]diazepine-2,4(1H,3H)-dione sodium salt] | – | IC50 [1]: 0.97 µM
4 | Nc1cccc(N2C(=O)CC(=O)Nc3c2ccc2c3CCCC2)c1 [Example 8, 5-(3-Aminophenyl)-1,5,8,9,10,11-hexahydronaphtho[1,2-b][1,4]diazepine-2,4-dione hydrochloride] | 4 | –
5 | Nc1ccc(N2C(=O)CC(=O)Nc3c2ccc2c3CCCC2)cc1 [Example 10, 5-(4-Aminophenyl)-1,5,8,9,10,11-hexahydronaphtho[1,2-b][1,4]diazepine-2,4-dione] | 6.1 | –
6 | CNc1ccc(N2C(=O)CC(=O)Nc3c2ccc2c3CCCC2)cc1 [Example 11, 5-(4-Methylaminophenyl)-1,5,8,9,10,11-hexahydronaphtho[1,2-b][1,4]diazepine-2,4-dione hydrochloride] | 3.3 | –
7 | COc1ccc(N2C(=O)CC(=O)Nc3c2ccc2c3CCCC2)cc1 [Example 13, 5-(4-Methoxyphenyl)-1,5,8,9,10,11-hexahydronaphtho[1,2-b][1,4]diazepine-2,4-dione] | 6.9 | –
8 | O=C1CC(=O)N(c2ccc(O)cc2)c2ccc3c(c2N1)CCCC3 [Example 14, 5-(4-Hydroxyphenyl)-1,5,8,9,10,11-hexahydronaphtho[1,2-b][1,4]diazepine-2,4-dione] | 3.8 | –
